Experimental findings from ChEMBL document CHEMBL1201862, “PubChem BioAssay data set” (2004) are described below.

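Dose response: 5 concentrations. Exposure: 48 h. Format: 96-well plates. Endpoint: linear interpolation; highest concentration if not reached. GI50 = concentration required for 50% inhibition of growth.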 Active and inactive are the calls of the source. No stated cut-off is given here; in the data, active = GI50 up to about 1.1 µM and inactive = higher.

Among the test systems are NCI-H23; HCT-15; SK-MEL-28; COLO 205; SF-539; A498; HCC 2998; LOX IMVI; OVCAR-4; U-251; OVCAR-5; UACC-62; K562; HOP-92; MOLT-4; CCRF-CEM; SR.
Holding throughout (experiment): NCI-60 cell line screen, 48 h

Take `CN1CC(=O)N2Cc3ccccc3-n3cccc3C2C1` (configuration not stated): the GI50 with NCI-H23 is > 100 µM (inactive); with HCT-15, greater than 100 µM; in the test on SK-MEL-28 it was > 100 µM (inactive); with COLO 205 it was > 100 µM (inactive); with SF-539 it was > 100 µM (inactive); with A498 it was > 100 µM (inactive). Also, the GI50 with HCC 2998, with LOX IMVI, in the test with OVCAR-4, with U-251, with OVCAR-5 and in the test on UACC-62 was > 100 µM (inactive) each time.

As for `CN(C)NC(=S)NC12CC3CC(CC(C3)C1)C2`, the GI50 in the test with NCI-H23 was > 100 µM (inactive); with K562 it was > 100 µM (inactive); with HCT-15 it was greater than 100 µM; with SK-MEL-28, > 100 µM (inactive); in the test with COLO 205, > 100 µM (inactive); in the test with SF-539 it was > 100 µM (inactive). Moreover, the GI50 in the test on A498 was > 100 µM (inactive); in the test with HCC 2998, > 100 µM (inactive); in the test on LOX IMVI, > 100 µM (inactive); in the test on HOP-92, 91.2 µM (inactive); with OVCAR-4, > 100 µM (inactive); with U-251, > 100 µM (inactive). The GI50 with MOLT-4, in the test on OVCAR-5, in the test on CCRF-CEM and in the test with UACC-62 was > 100 µM (inactive) in each case.

Take `CCOC(=O)C(C[Si](C)(C)C)P(=O)(OCC)OCC` (configuration not stated): the GI50 with SR is > 100 µM (inactive); in the test on NCI-H23 it was > 100 µM (inactive); with K562, > 100 µM (inactive); in the test on HCT-15, greater than 100 µM; in the test with SK-MEL-28, > 100 µM (inactive); with COLO 205, > 100 µM (inactive). The GI50 in the test on SF-539, in the test with HCC 2998, in the test on LOX IMVI, in the test with HOP-92, with OVCAR-4 and in the test with U-251 was > 100 µM (inactive) in each case. For the same compound, the GI50 in the test with MOLT-4, in the test with OVCAR-5, with CCRF-CEM and with UACC-62 was > 100 µM (inactive) throughout.

As for `O=c1cc(-c2ccccc2)[nH]c2c(F)ccc(F)c12`, the GI50 was 13.3 µM (inactive) in the test with SR; > 100 µM (inactive) with NCI-H23; 30.3 µM (inactive) with K562; 26.7 µM with HCT-15; 59.8 µM (inactive) with SK-MEL-28; 48.1 µM (inactive) with COLO 205. The GI50 in the test with SF-539 is 52.8 µM (inactive); with LOX IMVI, 49.3 µM (inactive); in the test on HOP-92, > 100 µM (inactive); in the test on OVCAR-4, > 100 µM (inactive); in the test with U-251, 41.4 µM (inactive); with MOLT-4, 46.2 µM (inactive). Moreover, the figures for the GI50 in the test on OVCAR-5, in the test with CCRF-CEM and in the test on UACC-62 were 43.9 µM (inactive), > 100 µM (inactive) and 30.7 µM (inactive), respectively.

For the compound `O=C1CCCCC1C1(O)C(=O)Nc2cc(F)ccc21` (configuration not stated), the GI50 is > 100 µM (inactive) in the test with NCI-H23; > 100 µM (inactive) in the test with K562; greater than 100 µM with HCT-15; > 100 µM (inactive) with SK-MEL-28; > 100 µM (inactive) with COLO 205; > 100 µM (inactive) in the test with SF-539. Also, the GI50 in the test on A498, with HCC 2998, with LOX IMVI, in the test on HOP-92, in the test with OVCAR-4 and in the test on U-251 was > 100 µM (inactive) each time. In addition, the GI50 in the test on MOLT-4, in the test on OVCAR-5, in the test on CCRF-CEM and in the test on UACC-62 was > 100 µM (inactive) in each case.

With `Cc1cccc(C)c1NC(=O)CCCC(=O)C1CCC/C1=N\NC(=O)C(=O)NN` (configuration not stated), the GI50 was > 100 µM (inactive) with NCI-H23; > 100 µM (inactive) in the test with K562; greater than 100 µM in the test on HCT-15; > 100 µM (inactive) in the test with SK-MEL-28; > 100 µM (inactive) in the test on COLO 205; > 100 µM (inactive) with SF-539. Further, the GI50 with A498, in the test on HCC 2998, in the test with LOX IMVI, in the test with OVCAR-4, in the test on U-251 and in the test on MOLT-4 was > 100 µM (inactive) in each case. Further, the GI50 in the test on OVCAR-5 and in the test with CCRF-CEM was > 100 µM (inactive) throughout.

Consider `NC1=NNC(=O)c2nnc3c(C(=O)O)cnn3c2S1`, for which the GI50 in the test with SR, with NCI-H23, in the test with K562, in the test on SK-MEL-28, in the test on COLO 205 and with SF-539 was > 100 µM (inactive) in each case. In addition, the GI50 with HOP-92 is > 100 µM (inactive); in the test on OVCAR-4 it was > 100 µM (inactive); in the test on U-251, > 100 µM (inactive); in the test on MOLT-4 it was > 100 µM (inactive); with OVCAR-5, > 100 µM (inactive); in the test on CCRF-CEM, 10 µM (inactive). For the same compound, the GI50 in the test on UACC-62 is > 100 µM (inactive).

On to `COc1ccc(NC(=O)CC(=O)N2N=C(N(CCC#N)c3cccc(C)c3)CC2c2ccccc2)cc1` (configuration not stated), for which the GI50 was > 100 µM (inactive) in the test on SR; > 100 µM (inactive) in the test on NCI-H23; > 100 µM (inactive) with K562; greater than 100 µM with HCT-15; > 100 µM (inactive) with SK-MEL-28; > 100 µM (inactive) in the test on COLO 205. For the same compound, the GI50 with SF-539, in the test with HCC 2998, in the test on HOP-92, in the test on OVCAR-4, in the test on U-251 and with MOLT-4 was > 100 µM (inactive) each time. Moreover, the GI50 with OVCAR-5, with CCRF-CEM and with UACC-62 was > 100 µM (inactive) throughout.

With `CC(=O)Nc1ccc(/C=C2\N=C(c3ccccc3)OC2=O)cc1`, the GI50 with NCI-H23 is > 100 µM (inactive); in the test with K562, > 100 µM (inactive); in the test with HCT-15, 55.7 µM; with SK-MEL-28, > 100 µM (inactive); with COLO 205, > 100 µM (inactive); in the test on HCC 2998 it was 36.1 µM (inactive). The GI50 with LOX IMVI is 80.2 µM (inactive); in the test with HOP-92, 62.5 µM (inactive); with OVCAR-4 it was > 100 µM (inactive); in the test with U-251, > 100 µM (inactive); with MOLT-4 it was 87.5 µM (inactive); in the test on OVCAR-5 it was > 100 µM (inactive). Besides, the GI50 was 33.1 µM (inactive) in the test with CCRF-CEM and 27.2 µM (inactive) in the test on UACC-62.

For `O=S1(=O)c2ccccc2NC(c2ccc3ccccc3c2)CC1c1ccccc1F` (configuration not stated), the GI50 was > 100 µM (inactive) in the test with NCI-H23; > 100 µM (inactive) in the test on K562; greater than 100 µM in the test with HCT-15; > 100 µM (inactive) with SK-MEL-28; > 100 µM (inactive) in the test with COLO 205; > 100 µM (inactive) with SF-539. The GI50 in the test on A498, in the test on HCC 2998, with LOX IMVI, in the test on OVCAR-4, in the test on MOLT-4 and in the test with OVCAR-5 was > 100 µM (inactive) throughout. The GI50 in the test with CCRF-CEM and in the test on UACC-62 was > 100 µM (inactive) throughout.

For `O=C(CP(=O)(O)O)c1cccs1`, the GI50 is > 100 µM (inactive) with NCI-H23; > 100 µM (inactive) with K562; greater than 100 µM in the test on HCT-15; > 100 µM (inactive) in the test on SK-MEL-28; > 100 µM (inactive) in the test with COLO 205; > 100 µM (inactive) with SF-539. For the same compound, the GI50 in the test on A498, in the test with HCC 2998, in the test on LOX IMVI, in the test on HOP-92, with U-251 and in the test on OVCAR-5 was > 100 µM (inactive) in each case. Further, the GI50 in the test on CCRF-CEM and with UACC-62 was > 100 µM (inactive) in each case.

For `COc1ccc2c(c1)C(CCN)C(=O)N2` (configuration not stated), the GI50 in the test on NCI-H23 was > 100 µM (inactive); in the test with K562, > 100 µM (inactive); with HCT-15, greater than 100 µM; in the test with SK-MEL-28, > 100 µM (inactive); in the test on COLO 205, > 100 µM (inactive); with SF-539, > 100 µM (inactive). Also, the GI50 with A498, in the test on HCC 2998, in the test on LOX IMVI, in the test with HOP-92, in the test with OVCAR-4 and in the test with U-251 was > 100 µM (inactive) each time. Besides, the GI50 in the test on MOLT-4, in the test with OVCAR-5, in the test with CCRF-CEM and in the test with UACC-62 was > 100 µM (inactive) throughout.

In the case of `O=C(NCCCCCCCCCCCCNC(=O)c1cnc2ccccc2n1)c1cnc2ccccc2n1`, the GI50 was > 100 µM (inactive) in the test with K562; greater than 100 µM with HCT-15; > 100 µM (inactive) in the test with SK-MEL-28; > 100 µM (inactive) with COLO 205; 15.1 µM (inactive) in the test on SF-539; 24.9 µM (inactive) with A498. Further, the GI50 is > 100 µM (inactive) in the test on HCC 2998; 39.8 µM (inactive) in the test with LOX IMVI; 13.6 µM (inactive) in the test on OVCAR-4; 28.8 µM (inactive) with U-251; > 100 µM (inactive) with MOLT-4; > 100 µM (inactive) with CCRF-CEM. Moreover, the GI50 with UACC-62 was > 100 µM (inactive).

On to `CN(N=O)C(=O)ON1C(=O)CCC1=O`, for which the GI50 in the test with NCI-H23 was > 100 µM (inactive); in the test on K562 it was > 100 µM (inactive); with HCT-15, greater than 100 µM; with SK-MEL-28 it was > 100 µM (inactive); in the test on SF-539, > 100 µM (inactive); with A498 it was > 100 µM (inactive). Moreover, the GI50 in the test with HCC 2998, in the test with LOX IMVI, in the test with HOP-92, with OVCAR-4, in the test on MOLT-4 and in the test on OVCAR-5 was > 100 µM (inactive) each time. The GI50 with CCRF-CEM and with UACC-62 was > 100 µM (inactive) in each case.
